Where a name gives a salt, the structure may show the parent alone.
Key:
5-HT4 receptor = target: T1, 5-HT4 receptor (Cavia porcellus, UniProt O70528); test: Test Example 3: Guinea pig 5-HT4 receptor binding assay, [3H]-GR113808, striatum membranes (Table 98); conditions: Guinea pig 5-HT4 receptor binding assay, [3H]-GR113808, striatum membranes; mean value of each group; read-out: IC50
T1 construct: striatum was isolated which was cryopreserved at −80° C. until use; from tissue; host or cells: guinea pig (Slc-Hartley) striatum membranes
Experimental: The guinea pig 5-HT4 receptor binding assay and preparations of receptor membrane preparations herein were carried out according to a method of Grossman et al. [see, British J. Pharmacol., (1993) 109, 618].
Slc-Hartley guinea pigs (body weight 300 g to 400 g) were decapitated to remove brain rapidly, and striatum was isolated which was cryopreserved at −80° C. until use. To the obtained tissues were added fifteen fold of Hepes buffer (50 mM, pH 7.4, 4° C.), and the mixture was homogenized by Teflon (trademark) homogenizer and centrifuged at 48,000×g (4° C.) for 15 minutes. To the resulting precipitate was added Hepes buffer (1 ml) to 30 mg by wet weight of tissues, and the mixture was suspended to give receptor membrane preparations.
To an assay tube were added 0.1 nM [^3H]-GR113808 {chemical name: [1-[2-(methylsulfonylamino) ethyl]-4-piperidinyl]methyl 1-methylindole-3-carboxylate}, receptor membrane preparations, and Hepes buffer (50 mM, pH 7.4, 4° C., 1 ml) containing test compounds or 30 μM serotonin; and the mixture was incubated at 37° C. for 30 minutes. On quenching the reaction, the mixture was rapidly filtered on whatman GF/B filter, which was presoaked in 0.1% polyethyleneimine for 1 hour, by using Brandel cell Harvester, and washed with ice-cooled 50 mM Tris-HCl (pH 7.7, 4 ml) three times. To the filter after filtration was added a liquid scintillator (Ecoscint), and then a radioactivity was determined by a liquid scintillation counter.
50% Inhibition concentrations (IC50) were determined from inhibition rates of test compounds to specific bindings which were obtained by subtracting nonspecific bindings from total binding amounts of [^3H]-GR113808. […]

human 5-HT4b receptor = target: T2, human 5-HT4b receptor (Homo sapiens, UniProt Q13639); test: Test Example 4: Serotonin 4 (5-HT4) receptor agonist activity assay, cAMP HTRF in CHO cells (Table 100); type: cell-based; conditions: mean value; for Emax: CHO, 0.25 h, intrinsic activity, maximal activity of 5-HT defined as 100%, read-out: IA (%); for EC50: concentration showing 50% of IA
T2 construct: expressed in transfected cells; host or cells: CHO cells (G418 selection)
Experimental: The cAMP measurement test used herein was carried out by using CISBIO HTRF (trademark) cAMP Hirange kit according to the manufacturer's instructions attached therewith.
CHO cells expressing human 5-HT4b receptor were incubated in Medium 1 [DMEM/1% NEAA, 1% penicillin/streptomycin (P/S), 0.2 mg/mL GENETICIN (G418), 10% FBS] at 37° C. under 5% CO2 condition. Then, the cells were put into Medium 2 (DMEM/10000 cut FBS, G-418, P/S, NEAA) for 1 to 2 hours, and collected by treating with trypsin containing EDTA. The collected cells were suspended in Assay Buffer 1 [100 mM Hanks/HEPES buffer (pH 7.4)], the suspended cells were mixed with the testing compound on 384-well plates, and the cells were incubated at 31° C. for 15 minutes. To the cells were added cAMP-cryptate solution and cAMP-d2 solution, and they were incubated at room temperature for 1 hour. Then, time-resolved fluorescence was measured by En Vision (excitation wavelength: 330 nm, fluorescence wavelength: 620/665 nm).
An intrinsic activity of the compound [IA (%)] and a concentration showing 50% of IA [EC50 (nM)] were calculated from the obtained results. In particular, the intrinsic activity (IA) was calculated on the basis of the maximal activity of 5-HT (measured from 10^−11 M to 10^−7 M) defined as 100%.
In the following table, the compounds used in the test are shown in numbers which correspond to the Example numbers above where the preparations of the compounds are described.

T2 sequence (Q13639 whole entry): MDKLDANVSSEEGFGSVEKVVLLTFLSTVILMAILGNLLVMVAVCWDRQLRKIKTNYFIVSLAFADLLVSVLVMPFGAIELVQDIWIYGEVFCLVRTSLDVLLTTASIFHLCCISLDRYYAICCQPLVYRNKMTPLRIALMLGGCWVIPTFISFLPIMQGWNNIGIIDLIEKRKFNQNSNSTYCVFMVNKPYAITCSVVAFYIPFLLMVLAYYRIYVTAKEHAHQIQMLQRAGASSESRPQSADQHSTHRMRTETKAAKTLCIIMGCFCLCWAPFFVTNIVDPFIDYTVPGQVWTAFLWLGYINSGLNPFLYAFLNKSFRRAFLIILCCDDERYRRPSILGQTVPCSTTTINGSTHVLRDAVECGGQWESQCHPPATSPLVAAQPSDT
T1 sequence (O70528 whole entry): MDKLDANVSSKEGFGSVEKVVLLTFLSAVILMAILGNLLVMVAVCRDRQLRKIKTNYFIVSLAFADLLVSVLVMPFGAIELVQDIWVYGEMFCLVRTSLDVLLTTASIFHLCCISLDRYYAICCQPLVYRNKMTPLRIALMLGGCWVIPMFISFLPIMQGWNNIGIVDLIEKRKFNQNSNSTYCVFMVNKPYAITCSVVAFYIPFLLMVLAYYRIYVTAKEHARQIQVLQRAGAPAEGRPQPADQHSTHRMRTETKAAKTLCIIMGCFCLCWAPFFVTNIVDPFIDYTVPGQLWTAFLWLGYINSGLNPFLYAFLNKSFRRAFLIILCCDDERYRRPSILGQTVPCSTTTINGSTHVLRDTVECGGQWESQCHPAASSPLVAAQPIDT

Row | Structure (SMILES) | IC50 (5-HT4 receptor) [µM] | Emax (human 5-HT4b receptor) [%] | EC50 (human 5-HT4b receptor) [µM]
1 | CCc1nn(-c2noc(C3CCN(C[C@@H]4CCN(C(C)=O)C4)CC3)n2)c2c(F)cccc12 [Example 201, 1-[(3S)-3-({4-[3-(3-ethyl-7-fluoro-1H-indazol-1-yl)-1,2,4-oxadiazol-5-yl]piperidin-1-yl}methyl)pyrrolidin-1-yl]ethanone] | < 0.02 | 39.7 | 0.0068
2 | CCc1nn(-c2noc(C3CCN(C[C@@H]4CCN(C(=O)COC)C4)CC3)n2)c2c(F)cccc12 [Example 202, 1-[(3S)-3-({4-[3-(3-ethyl-7-fluoro-1H-indazol-1-yl)-1,2,4-oxadiazol-5-yl]piperidin-1-yl}methyl)pyrrolidin-1-yl]-2-methoxyethanone] | < 0.02 | 39 | 0.0058
3 | CCc1nn(-c2noc(C3CCN(C[C@@H]4CCN(S(C)(=O)=O)C4)CC3)n2)c2c(F)cccc12 [Example 203, 3-ethyl-7-fluoro-1-[5-(1-{[(3S)-1-(methylsulfonyl)pyrrolidin-3-yl]methyl}piperidin-4-yl)-1,2,4-oxadiazol-3-yl]-1H-indazole] | < 0.02 | 71.8 | 0.0011
4 | CCc1nn(-c2noc(C3CCN(C[C@H]4CCN(C(C)=O)C4)CC3)n2)c2c(F)cccc12 [Example 209, 1-[(3R)-3-({4-[3-(3-ethyl-7-fluoro-1H-indazol-1-yl)-1,2,4-oxadiazol-5-yl]piperidin-1-yl}methyl)pyrrolidin-1-yl]ethanone hydrochloride] | < 0.02 | 79.1 | 0.0037
5 | CCc1nn(-c2noc(C3CCN(C[C@H]4CCN(C(=O)COC)C4)CC3)n2)c2c(F)cccc12 [Example 210, 1-[(3R)-3-({4-[3-(3-ethyl-7-fluoro-1H-indazol-1-yl)-1,2,4-oxadiazol-5-yl]piperidin-1-yl}methyl)pyrrolidin-1-yl]-2-methoxyethanone hydrochloride] | < 0.02 | 68.6 | 0.005
6 | CCc1nn(-c2noc(C3CCN(C[C@H]4CCN(S(C)(=O)=O)C4)CC3)n2)c2c(F)cccc12 [Example 216, 3-ethyl-7-fluoro-1-[5-(1-{[(3R)-1-(methylsulfonyl)pyrrolidin-3-yl]methyl}piperidin-4-yl)-1,2,4-oxadiazol-3-yl]-1H-indazole] | < 0.02 | 62.3 | 0.0046
7 | CC(=O)N1CC(CN2CCC(c3nc(-n4nc(C(C)C)c5cccc(F)c54)no3)CC2)C1 [Example 219, 1-{3-[(4-{3-[7-fluoro-3-(propan-2-yl)-1H-indazol-1-yl]-1,2,4-oxadiazol-5-yl}piperidin-1-yl)methyl]azetidin-1-yl}ethanone hydrochloride] | < 0.02 | 96.9 | 0.0028
8 | COC(=O)N1CC(CN2CCC(c3nc(-n4nc(C(C)C)c5cccc(F)c54)no3)CC2)C1 [Example 220, methyl 3-[(4{3-[7-fluoro-3-(propan-2-yl)-1H-indazol-1-yl]-1,2,4-oxadiazol-5-yl}piperidin-1-yl)methyl]azetidine-1-carboxylate hydrochloride] | < 0.02 | 92.4 | 0.0048
9 | COCC(=O)N1CC(CN2CCC(c3nc(-n4nc(C(C)C)c5cccc(F)c54)no3)CC2)C1 [Example 221, 1-{3-[(4-{3-[7-fluoro-3-(propan-2-yl)-1H-indazol-1-yl]-1,2,4-oxadiazol-5-yl}piperidin-1-yl)methyl]azetidin-1-yl}-2-methoxyethanone hydrochloride] | < 0.02 | 86.1 | 0.0061
10 | CCc1nn(-c2noc(C3CCN(CC4CN(C(C)=O)C4)CC3)n2)c2c(F)cccc12 [Example 223, 1-[3-({4-[3-(3-ethyl-7-fluoro-1H-indazol-1-yl)-1,2,4-oxadiazol-5-yl]piperidin-1-yl}methyl)azetidin-1-yl]ethanone hydrochloride] | < 0.02 | 72.7 | 0.0034
11 | COCC(=O)N1CCC(N2CCC(c3nc(-n4nc(C(C)C)c5cccc(F)c54)no3)CC2)CC1 [Example 233, 1-(4-{3-[7-fluoro-3-(propan-2-yl)-1H-indazol-1-yl]-1,2,4-oxadiazol-5-yl}-1,4′-bipiperidin-1′-yl)-2-methoxyethanone hydrochloride] | < 0.02 | 93.5 | 0.0029
12 | CCc1nn(-c2noc(C3CCN(C4CCN(C(=O)COC)CC4)CC3)n2)c2c(F)cccc12 [Example 237, 1-{4-[3-(3-ethyl-7-fluoro-1H-indazol-1-yl)-1,2,4-oxadiazol-5-yl]-1,4′-bipiperidin-1′-yl}-2-methoxyethanone hydrochloride] | < 0.02 | 51.9 | 0.0097
13 | CCc1nn(-c2noc(C3CCN(C4CCN(S(C)(=O)=O)CC4)CC3)n2)c2c(F)cccc12 [Example 241, 4-[3-(3-ethyl-7-fluoro-1H-indazol-1-yl)-1,2,4-oxadiazol-5-yl]-1′-(methylsulfonyl)-1,4′-bipiperidine] | < 0.02 | 58.8 | 0.0032
14 | CCc1nn(-c2noc(C3CCN(C[C@H]4CCN(C(=O)CO)C4)CC3)n2)c2c(F)cccc12 [Example 247, 1-[(3R)-3-({4-[3-(3-ethyl-7-fluoro-1H-indazol-1-yl)-1,2,4-oxadiazol-5-yl]piperidin-1-yl}methyl)pyrrolidin-1-yl]-2-hydroxyethanone] | < 0.02 | 79 | 0.0127
15 | CC(C)c1nn(-c2noc(CCCN3CCCCC3)n2)c2c(F)cccc12 [Example 394, 7-fluoro-1-{5-[3-(piperidin-1-yl)propyl]-1,2,4-oxadiazol-3-yl}-3-(propan-2-yl)-1H-indazole] | < 0.02 | 101 | 0.0031
16 | CC(C)c1nn(-c2noc(C3CCN(C(C)(C)CO)CC3)n2)c2c(F)cccc12 [Example 402, 2-(4-{3-[7-fluoro-3-(propan-2-yl)-1-indazol-1-yl]-1,2,4-oxadiazol-5-yl}piperidin-1-yl)-2-methylpropan-1-ol] | < 0.02 | 106 | 0.0018
17 | COc1ccc(F)c2c1c(C(C)C)nn2-c1noc(C2CCN(C3CCN(C(C)=O)CC3)CC2)n1 [Example 405, 1-(4-{3-[7-fluoro-4-methoxy-3-(propan-2-yl)-1H-indazol-1-yl]-1,2,4-oxadiazol-5-yl}-1,4′-bipiperidin-1′-yl)ethanone] | 0.0654 | 21.6 | 0.0342
18 | CC(C)c1nn(-c2noc(C3CCN(C4CCC4)CC3)n2)c2ccccc12 [Example 420, 1-[5-(1-cyclobutylpiperidin-4-yl)-1,2,4-oxadiazol-3-yl]-3-(propan-2-yl)-1H-indazole trifluoroacetate] | 0.0739 | 85.6 | 0.0082
19 | CCc1nn(-c2noc(C3CCN(CC4CCOCC4)CC3)n2)c2cc(C)ccc12 [Example 435, 3-ethyl-6-methyl-1-{5-[1-(tetrahydro-2H-pyran-4-ylmethyl)piperidin-4-yl]-1,2,4-oxadiazol-3-yl}-1H-indazole trifluoroacetate] | 0.0447 | 1.6 | 0.0119
20 | CCCCN1CCC(c2cnc(-n3nc(C(C)C)c4cccc(F)c43)[nH]2)CC1 [Example 562, 1-[5-(1-butylpiperidin-4-yl)-1H-imidazol-2-yl]-7-fluoro-3-(propan-2-yl)-1H-indazole] | 0.478 | – | –
21 | CCCCN1CCC(c2cnc(-n3nc(C(C)C)c4cccc(F)c43)s2)CC1 [Example 563, 1-[5-(1-butylpiperidin-4-yl)-1,3-thiazol-2-yl]-7-fluoro-3-(propan-2-yl)-1H-indazole] | 0.222 | – | –
22 | CCCCN1CCC(c2ncc(-n3nc(C(C)C)c4cccc(F)c43)s2)CC1 [Example 564, 1-[2-(1-butylpiperidin-4-yl)-1,3-thiazol-5-yl]-7-fluoro-3-(propan-2-yl)-1H-indazole] | 0.653 | – | –

— patent US20140057895A1, “INDAZOLE- AND PYRROLOPYRIDINE-DERIVATIVE AND PHARMACEUTICAL USE THEREOF” (priority 2011, published 2014)
